Measurements as given in ChEMBL document CHEMBL1144331, “Uric acid may inhibit glucose-induced insulin secretion via binding to an essential arginine residue in rat pancreatic beta-cells” (2005).

Columns and labels:
Rattus norvegicus [1] = test: Insulin release in rat pancreatic beta-cells after 15 minutes of administration at 1 mM was measured; assay type: functional
Rattus norvegicus [2] = test: Insulin release in rat pancreatic beta-cells after 15 minutes of administration of the K-salt of compound at 1 mM was measured; assay type: functional
Rattus norvegicus [3] = species on record: Rattus norvegicus; test: Acid dissociation constant was determined
Rattus norvegicus [4] = test: Insulin release in rat pancreatic beta-cells after 15 minutes of administration of the NH4-salt of compound at 1 mM was measured; assay type: functional
Rattus norvegicus [5] = test: Insulin release in rat pancreatic beta-cells after 15 minutes of administration of the Na-salt of compound at 1 mM was measured; assay type: functional
Rattus norvegicus [6] = test: Insulin release in rat pancreatic beta-cells (PBS-rinsing of the islets) after 15 minutes of administration at 1 mM was measured; assay type: functional

SMILES | Insulin release (Rattus norvegicus [1]) [ng/islet/h] | other results
Cn1c(O)nc2c1C(=O)NC(O)N2.NC(N)N (stereo not drawn) | 8.55 | –
O=c1[nH]c(=O)c2nn[nH]c2[nH]1 | 7.92 | –
Oc1nc(O)c2nc(O)[nH]c2n1 [URIC ACID] | 1.65 | Insulin release (Rattus norvegicus [2]): 1.68 ng/islet/h; pKa (Rattus norvegicus [3]): 5.4; Insulin release (Rattus norvegicus [4]): 1.66 ng/islet/h; Insulin release (Rattus norvegicus [5]): 1.7 ng/islet/h
O=c1[nH]c(=O)c2nc[nH]c2[nH]1 [XANTHINE] | 3.5 | pKa (Rattus norvegicus [3]): 7.7; Insulin release (Rattus norvegicus [6]): 7.72 ng/islet/h
O=c1[nH]cnc2nc[nH]c12 [HYPOXANTHINE] | 8.44 | –
CN1C(=O)c2nc(O)[nH]c2NC1O.NC(N)N (stereo not drawn) | 8.75 | –
O=C1NC(=O)C(O)(O)C(=O)N1 | 0.39 | –
O=C(O)c1nc(=O)[nH]c(=O)[nH]1 [OTERACIL] | 8.26 | –
Cn1c(O)nc2[nH]c(=O)[nH]c(=O)c21 | 8.04 | –
NC(N)N.O=C1NC(O)Nc2[nH]c(O)nc21 (stereo not drawn) | 8.39 | –
Cn1c(=O)c2[nH]c(=O)[nH]c2n(C)c1=O | 8.48 | –
Cn1c(=O)[nH]c2[nH]c(=O)[nH]c2c1=O | 7.92 | –
